Assay results from patent US20240058350A1, “Methods of Treatment” (Arena Pharmaceuticals, Inc., priority 2020, published 2024).

How the values were obtained:
[1] = Clinical Trial 2: phase 1 multiple ascending oral dose TID for 7 days, PK; format: in vivo, human; details: for accumulation ratio as measured by AUCtau: 60 and 80 mg Compound 1 oral TID, after 7 days; for metabolite exposures with increasing Compound 1 doses / metabolite to parent ratios with increasing Compound 1 doses: oral TID for 7 days
Experimental: A phase 1, randomized, double-blind, placebo-controlled, multiple-ascending dose-escalation study was conducted to assess the safety, tolerability, PD, and steady state PK of the HCl salt of Compound 1 from 5 to 80 mg (adjusted free-base concentration) administered orally TID for 7 days in a total of 50 healthy subjects.

5-HT2C receptors = molecular target: T1, 5-HT2C receptors (Homo sapiens, UniProt P28335); assay: affinity for 5-HT2C receptors; format: binding
T1 sequence (P28335 33-458): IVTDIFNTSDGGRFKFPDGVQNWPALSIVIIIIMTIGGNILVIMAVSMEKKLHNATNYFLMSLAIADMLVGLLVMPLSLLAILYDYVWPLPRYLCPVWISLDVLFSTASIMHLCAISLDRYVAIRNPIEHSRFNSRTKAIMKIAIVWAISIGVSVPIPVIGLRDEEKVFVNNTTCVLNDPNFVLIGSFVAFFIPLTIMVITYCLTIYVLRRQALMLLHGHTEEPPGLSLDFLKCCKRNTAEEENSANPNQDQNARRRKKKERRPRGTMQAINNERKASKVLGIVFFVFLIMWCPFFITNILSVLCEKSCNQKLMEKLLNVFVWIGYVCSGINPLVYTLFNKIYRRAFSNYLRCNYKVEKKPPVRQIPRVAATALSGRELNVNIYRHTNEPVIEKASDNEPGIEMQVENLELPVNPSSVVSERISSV
Excerpt: (§1) M1 refers to N-(4-(2-(2-hydroxyethylamino)ethoxy)-3-(1-methyl-1H-pyrazol-5-yl)phenyl)-3-methoxybenzamide. M2 refers to N-(4-(2-aminoethoxy)-3-(1-methyl-1H-pyrazol-5-yl)phenyl)-3-methoxybenzamide. Compound 1, or a pharmaceutically acceptable salt, hydrate, or solvate thereof, inhibits serotonin-mediated vasoconstriction and inhibits serotonin-mediated amplification of platelet aggregation.

5-HT2B receptors = 5-HT2B receptors (Homo sapiens, UniProt P41595); assay: affinity for 5-HT2B receptors; format: binding
Excerpt: as §1

[2] = Clinical Trial 1: phase 1 single oral dose escalation, PK; format: in vivo, human; details: healthy subjects; for half-life compared with the parent compound: single oral dose of Compound 1 HCl
Experimental: (§2) A phase 1, randomized, double-blind, placebo-controlled, single-dose escalation study was conducted to assess the tolerability, PK, and PD of the HCl salt of Compound 1 at doses of 1 to 320 mg (adjusted free-base concentration) administered orally as a single dose to a total of 91 healthy subjects.

human 5-HT2A = human 5-HT2A (Homo sapiens, UniProt P28223); assay: affinity for human 5-HT2A; format: binding
Excerpt: as §1

[3] = Clinical Trial 3: phase 1 single ascending IV dose, PK; format: in vivo, human
Experimental: (§3) A phase 1, randomized, blinded, sponsor-open, placebo-controlled, single ascending dose (SAD) study was conducted to assess the safety, tolerability, PK, and PD of single IV doses of Compound 1 and two active metabolites (M1 and M2) in healthy adult subjects. Five dose cohorts (each cohort composed of six Compound 1 subjects and two placebo subjects) were evaluated.
(§4) Subjects received a single dose of Compound 1 or placebo. Each cohort included a sentinel group of two subjects (one active and one placebo) dosed at least 24 hours before the remaining six subjects (five active and one placebo). The remaining subjects were dosed following review of all available safety and tolerability data from the sentinel subjects. Safety, tolerability, and PK data were reviewed after the completion of each dose cohort and prior to escalation to the next dose cohort. PD data were reviewed prior to dosing subsequent cohorts. Selection of dose for subsequent cohorts was based on the data from previous cohort(s). Following administration of Compound 1 or placebo, subjects were confined for 72 hours to monitor safety and to collect PK/PD samples. Cardiodynamic electrocardiogram (ECG) sampling were collected pre-dose and through 24 hours post-dose in each cohort. The clinic contacted subjects on Day 11 (1 day) to determine if any adverse event (AE) occurred since discharge.
(§5) IV doses of placebo […], 1 mg Compound 1 (n=6), 5 mg Compound 1 (n=6), 10 mg Compound 1 (n=5), 20 mg Compound 1 (n=6), 30 mg Compound 1 (n=6), or 40 mg Compound 1 (n=6) were administered. The doses of 1 mg, 5 mg, 10 mg, and 20 mg of Compound 1 were administered by slow bolus infusion over a period of two minutes, while the doses of 30 mg and 40 mg of Compound 1 were administered over a period of five minutes. The PD effects of the single doses were examined immediately after dosing and 4 hours after dosing.

[4] = test system: 5-HT-mediated amplification of platelet aggregation; assay: Clinical Trial 1: PD, platelet aggregation with ADP with and without 5-HT; format: in vivo, human; details: single oral doses above 1 mg, healthy subjects
Experimental: as §2
(§6) PD assessment consisted of measuring pre- and post-dose platelet aggregation using an in vitro assay with ADP with and without 5-HT. The degree of thrombin receptor activating peptide (TRAP)-induced platelet aggregation inhibition between groups was similar. However, Compound 1 inhibited 5-HT-mediated amplification of platelet aggregation at doses above 1 mg.

[5] = Clinical Trial 3: safety and tolerability of single IV doses; format: in vivo, human
Experimental: as §3, §4, §5

[6] = test system: thrombin receptor activating peptide (TRAP)-induced platelet aggregation; assay: Clinical Trial 1: PD, TRAP-induced platelet aggregation; format: in vivo, human; details: single oral dose versus placebo, healthy subjects
Experimental: as §2, §6

[7] = test system: 5-HT-mediated amplification of platelet aggregation; assay: Clinical Trial 3: PD, 5-HT-mediated amplification of platelet aggregation; format: in vivo, human; details: single IV doses of 20 mg and greater
Experimental: as §3
as §4, with “discharge. […]” for “discharge.”

[8] = test system: serotonin-mediated vasoconstriction; assay: serotonin-mediated vasoconstriction
Excerpt: as §1

[9] = test system: serotonin-mediated amplification of platelet aggregation; assay: serotonin-mediated amplification of platelet aggregation; format: cell-based
Excerpt: as §1

[10] = all doses, Day 1 versus Day 7, oral TID for 7 days

human 5-HT2A, sequence (P28223 whole entry): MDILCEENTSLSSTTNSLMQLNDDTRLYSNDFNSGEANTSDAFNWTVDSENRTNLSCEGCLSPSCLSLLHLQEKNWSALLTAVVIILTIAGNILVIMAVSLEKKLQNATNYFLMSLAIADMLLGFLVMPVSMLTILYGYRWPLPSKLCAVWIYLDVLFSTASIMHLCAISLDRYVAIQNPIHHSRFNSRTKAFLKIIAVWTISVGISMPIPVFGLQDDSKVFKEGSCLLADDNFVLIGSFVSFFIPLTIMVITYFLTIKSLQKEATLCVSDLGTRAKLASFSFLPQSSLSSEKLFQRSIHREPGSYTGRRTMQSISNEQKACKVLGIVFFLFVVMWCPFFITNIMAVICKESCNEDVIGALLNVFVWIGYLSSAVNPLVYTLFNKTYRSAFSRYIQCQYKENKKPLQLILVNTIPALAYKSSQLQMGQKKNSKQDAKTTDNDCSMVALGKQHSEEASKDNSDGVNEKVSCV
5-HT2B receptors, sequence (P41595 whole entry): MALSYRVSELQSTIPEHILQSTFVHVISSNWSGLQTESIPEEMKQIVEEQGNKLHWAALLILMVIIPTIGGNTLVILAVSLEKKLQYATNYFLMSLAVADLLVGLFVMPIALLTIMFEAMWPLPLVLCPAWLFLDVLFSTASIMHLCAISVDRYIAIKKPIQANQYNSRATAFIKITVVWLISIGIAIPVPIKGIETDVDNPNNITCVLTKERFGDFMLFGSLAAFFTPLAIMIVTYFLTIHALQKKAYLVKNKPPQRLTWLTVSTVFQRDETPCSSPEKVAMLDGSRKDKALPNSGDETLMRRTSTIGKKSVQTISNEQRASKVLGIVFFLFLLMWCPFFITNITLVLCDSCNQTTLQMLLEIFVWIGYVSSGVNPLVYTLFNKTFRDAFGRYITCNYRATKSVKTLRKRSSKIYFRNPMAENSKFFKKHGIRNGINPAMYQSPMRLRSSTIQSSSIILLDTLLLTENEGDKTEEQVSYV

| SMILES | accumulation ratio as measured by AUCtau [1] | metabolite exposures with increasing Compound 1 doses [1] | metabolite to parent ratios with increasing Compound 1 doses [1] | affinity for 5-HT2C receptors (5-HT2C receptors) | affinity for 5-HT2B receptors (5-HT2B receptors) | metabolite-to-parent ratios as the dose was escalated ([2]; single oral dose 1 to 320 mg) | half-life compared with the parent compound [2] | affinity for human 5-HT2A (human 5-HT2A) | further results |
| --- | --- | --- | --- | --- | --- | --- | --- | --- | --- |
| COc1cccc(C(=O)Nc2ccc(OCCN)c(-c3ccnn3C)c2)c1 [Compound M2, N-(4-(2-aminoethoxy)-3-(1-methyl-1H-pyrazol-5-yl)phenyl)-3-methoxybenzamide] | approximately 2 | increased | decreased | no appreciable affinity | no appreciable affinity | decreased | longer half-lives than the parent compound | high affinity | – |
| COc1cccc(C(=O)Nc2ccc(OCCNCCO)c(-c3ccnn3C)c2)c1 [Compound M1, N-(4-(2-(2-hydroxyethylamino)ethoxy)-3-(1-methyl-1H-pyrazol-5-yl)phenyl)-3-methoxybenzamide] | approximately 2 | increased | decreased | no appreciable affinity | no appreciable affinity | decreased | longer half-lives than the parent compound | high affinity | – |
| COc1cccc(C(=O)Nc2ccc(OCCN3CCOCC3)c(-c3ccnn3C)c2)c1 [Compound 1, 3-methoxy-N-[3-(2-methylpyrazol-3-yl)-4-(2-morpholin-4-ylethoxy)phenyl]benzamide] | – | – | – | no appreciable affinity | no appreciable affinity | – | – | high affinity | AUC accumulation ratio [1, 10]: less than 2; Cmax accumulation ratio [1, 10]: less than 2; absorption ([1]; oral 5 to 80 mg TID for 7 days, healthy subjects): rapidly absorbed at all doses; exposure as measured by AUC versus dose ([1]; oral TID, 5 and 10 mg): dose proportional; exposure as measured by AUC versus dose ([1]; oral TID, 40, 60, and 80 mg, Day 1 and Day 7): greater than dose proportional; Cmax ([3]; human, plasma, 40 mg single IV dose, healthy adult subjects, read-out: mean observed Cmax): 1840 ng/mL; half-life ([3]; human, plasma, single IV doses 1 to 40 mg, healthy adult subjects, read-out: mean terminal elimination half-life): 1 to 2 h; dose dependence of mean terminal elimination half-life ([3]; single IV doses 1 to 40 mg): dose-dependent; 5-HT-mediated amplification of platelet aggregation [4]: inhibited; epistaxis, subjects affected ([5]; Compound 1 group, single IV dose): one subject; bleeding-related TEAEs, Bleeding Academic Research Consortium (BARC) Type ([5]; single IV doses): ≤ 1; discontinuation of treatment ([5]; single IV doses 1 to 40 mg): No subjects discontinued treatment; degree of TRAP-induced platelet aggregation inhibition between groups [6]: similar; inhibition of 5-HT-mediated amplification of platelet aggregation [7]: Near-maximal inhibition; serotonin-mediated vasoconstriction [8]: inhibits; absorption ([2]; single oral dose 1 to 320 mg): rapidly absorbed at all doses; half-life as the dose was escalated ([2]; single oral dose 1 to 320 mg): half-life increased; plasma exposure measures versus dose ([2]; single oral dose 1 to 320 mg): increased in a greater than dose proportional manner; serotonin-mediated amplification of platelet aggregation [9]: inhibits |
